One data set concerns 2N4R tau. The data set can be described thus: In vitro seeded aggregation/fibrillization assay of 2N4R tau (ThT fluorescence). Format: biochemical. The settings on record: tau:compound mole ratios 1:3 and 1:10. The protocol:
Aggregation of 2N4R Tau was performed using a previously published co-factor-free aggregation protocol, with a few modifications (Reference: Chakraborty, P. et al. Co-factor-free aggregation of tau into seeding-competent RNA-sequestering amyloid fibrils. Nat. Commun. 12, 4231 (2021)). Aggregation experiments used the Tau protein stock prepared in 25 mM HEPES pH 7.4, 1 mM TCEP. Stocks of compounds were prepared in aggregation buffer (25 mM HEPES, 10 mM KCl, 5 mM MgCl2, pH 7.2) or in DMSO (10 mM compound).
To prepare the Tau fibril seeds by de novo aggregation, 2N4R Tau at a monomer concentration of 25 μM was diluted in aggregation buffer. The working concentration of TCEP in the aggregation mixture was <25 μM after dilution of the stock. To this mixture, Thioflavin T (ThT) was added to a final concentration of 50 μM. A total volume of 100 μL of the Tau-ThT mixture was incubated in a well of a 96-well microplate (Greiner Bio-one), in the presence of two polytetrafluoroethylene beads. The microplate was subjected to a program implemented in a Tecan Spark plate reader that involved incubating at 37° C., with intervals of double orbital shaking and ThT fluorescence emission measurement. The excitation wavelength for ThT was set as 430 nm and the emission wavelength was 485 nm. Details of this plate reader program were published previously (Reference: Chakraborty, P. et al. Co-factor-free aggregation of tau into seeding-competent RNA-sequestering amyloid fibrils. Nat. Commun. 12, 4231 (2021)). […] The fibril-containing mixture collected from the microplate served as a seeding mixture for the subsequent aggregation assays.
Seeded aggregation assays were performed as described above but with 1.0% of the well volume occupied by the seeding mixture sonicated for 1 minute. The assays were performed in the presence and absence of compounds, and working concentrations ranged from 0-250 μM compound.
Analyses of the fluorescence curves were performed using Graphpad PRISM version 8. Fluorescence data were fit to a sigmoid function. The number of hours corresponding to half-maximal ThT Fluorescence™ as well as the span of fluorescence intensity (Span) were determined for each sigmoid curve. Statistically significant differences were determined by one-way ANOVA analysis with Dunnett's multiple comparison test or unpaired t-test.

The test system of another data set is 3R tau (tau^3R). Nature of the data set: In vitro seeded aggregation assay of 3R tau (ThT fluorescence). In kind it is biochemical. Particulars: mole ratios 1:3 and 1:10. The method, then: (§1) Seeded aggregation assays were performed as described above but with 1.0% of the well volume occupied by the seeding mixture sonicated for 1 minute. The assays were performed in the presence and absence of compounds, and working concentrations ranged from 0-250 μM compound. Analyses of the fluorescence curves were performed using Graphpad PRISM version 8. Fluorescence data were fit to a sigmoid function. The number of hours corresponding to half-maximal ThT FluorescenceTM as well as the span of fluorescence intensity (Span) were determined for each sigmoid curve. Statistically significant differences were determined by one-way ANOVA analysis with Dunnett's multiple comparison test or unpaired t-test. The described seeded aggregation protocol was likewise applied to 3R Tau and the […]/[…] mutant of 2N4R Tau.

A further data set concerns the target 2N4R tau^C291S,C322S (Homo sapiens, UniProt P10636, C608S/C639S). Nature of the data set: In vitro seeded aggregation assay of cysteine-free tau mutant (ThT fluorescence). In kind it is biochemical. Particulars: mole ratios 1:3 and 1:10. The method, then: as §1
The next data set can be described thus: Solubility in water. Format: physicochemical. Particulars: without cosolvents or counterions.

Structures can show the parent of a compound that is named as a salt.

2N4R tau^C291S,C322S, sequence (P10636 1-441 isoform P10636-8 C291S/C322S): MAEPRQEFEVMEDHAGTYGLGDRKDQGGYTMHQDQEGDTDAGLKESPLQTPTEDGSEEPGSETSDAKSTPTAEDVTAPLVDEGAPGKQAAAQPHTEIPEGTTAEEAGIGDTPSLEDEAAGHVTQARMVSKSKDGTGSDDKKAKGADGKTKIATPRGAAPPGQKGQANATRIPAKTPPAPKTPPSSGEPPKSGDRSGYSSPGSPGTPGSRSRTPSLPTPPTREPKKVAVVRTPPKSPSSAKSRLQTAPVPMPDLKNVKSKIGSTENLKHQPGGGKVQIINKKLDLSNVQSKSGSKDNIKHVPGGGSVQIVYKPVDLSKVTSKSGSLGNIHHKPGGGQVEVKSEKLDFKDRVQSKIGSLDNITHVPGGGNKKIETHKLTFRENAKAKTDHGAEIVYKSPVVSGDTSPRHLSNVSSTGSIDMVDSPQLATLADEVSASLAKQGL

Turning to `C=CC(=O)Nc1cc(Nc2nccc(-c3cn(C)c4ccccc34)n2)c(OC)cc1N(C)CCN(C)C` [Osimertinib mesylate, N-[2-(2-Dimethylaminoethylmethylamino)-4-methoxy-5-[[4-(1-methylindol-3-yl)pyrimidin-2-yl]amino]phenyl]prop-2-enamide Mesylate Salt], the “inhibition of aggregation of tau^wt and tau^3R compared with cysteine-free tau^C291S,C322S” value in the data set on 2N4R tau was “more effectively inhibits”. In addition, the “normalized Span of ThT fluorescence” value with 3R tau (tau^3R) is “statistically lower normalized Span values”; on 2N4R tau^C291S,C322S, “not observed”. The “normalized Tm (midpoint of aggregation curve)” value in the data set with 3R tau (tau^3R) and at 2N4R tau^C291S,C322S was “do not show a clear dose-dependence” each time.
For the compound `C=CC(=O)Nc1cc(Nc2nccc(-c3cn(C)c4ccccc34)n2)c(OC)cc1N(C)CCN(C)C` [Osimertinib, N-[2-(2-Dimethylaminoethylmethylamino)-4-methoxy-5-[[4-(1-methylindol-3-yl)pyrimidin-2-yl]amino]phenyl]prop-2-enamide], in “Solubility in water”, the solubility in water result is given as “poor solubility in water”.
